Measured values reported in patent US9522962B2, “Peptides, conjugates and method for increasing immunogenicity of a vaccine” (Academisch Ziekenhuis Leiden h.o.d.n. LUMC, priority 2010, dated 2016).
“Also recorded” adds a separate entry of the source. Read-outs that look alike come from different tables or passages of the source. Square brackets hold non-standard residues; d marks the D form. Ends that are not written are not given here. * marks the point of attachment. Biotin = O=C1N[C@H]2[C@H](CS[C@H]2CCCCC(=O)*)N1; code O = not defined here; Ahx = NCCCCCC(=O)O; For = O=C*

Tested on: antibodies in TETAQUIN® (anti-TTd antibodies)
Assay type: binding, human
Conditions: for binding to TETAQUIN (screen of overlapping 22-mer TTx peptides): FIG. 3 (α-chain), FIG. 4 (β-chain)
[1] = Table 4, antibody source not given
[2] = Table 3, further length variants and Lys(formyl) variants, […], neg. control OD 0.30
[3] = Table 2, length variants of peptide β-32, section 'With linker', […] diluted 800x, OD at 415 nm
[4] = Table 2, length variants of peptide β-32, section 'Without linker' (sequence listed without Z O), […]

Row | Substance | OD [3] | OD [4] | other results
1 | F I G I T E L K K L E S K I N K Z Z O (FIGITELKKLESKINK[Ahx][Ahx]K(Biotin)) | – | – | ELISA OD, effect of longer spacer and C- versus N-terminal biotinylation [1]: 0.65
2 | G I T E L K K L E S K I N K Z O (GITELKKLESKINK[Ahx]K(Biotin)) [0925-59] | – | – | OD [2]: 0.75
3 | F I G I T E L K K L E S K I N K V Z Z O (FIGITELKKLESKINKV[Ahx][Ahx]K(Biotin)) | – | – | ELISA OD, effect of longer spacer and C- versus N-terminal biotinylation [1]: 0.68
4 | I G I T E L K K L E S K I N Z O (IGITELKKLESKIN[Ahx]K(Biotin)) [0925-58] | – | – | OD [2]: 1.45
5 | AMDIEYNDMFNNFTVSFWLRVPZO [β41] | – | – | binding to TETAQUIN (screen of overlapping 22-mer TTx peptides): good binding; also recorded: antibodies present
6 | Q Y I K A N S K F I G I T E L K Z O (QYIKANSKFIGITELK-{Ahx-code O}; reading uncertain) [P10] | 0.25 | 0.25 | –
7 | QYIKANSKFIGITELKKLES Z O (QYIKANSKFIGITELKKLES-{Ahx-code O}; reading uncertain) [P3] | 1.1 | 1.1 | –
8 | F I G I T E L K K L E S K I N K V Z O (FIGITELKKLESKINKV[Ahx]K; not fully specified (residue 19); also: O: biotin modification, exact residue form not clear) [0925-55] | – | – | OD [2]: 2.00
9 | F I G I T E L K K L E S K I Z O (FIGITELKKLESKI-{Ahx-code O}; reading uncertain) [P11] | 1.0 | 1.0 | –
10 | IGALETTGVVLLLEYIPEITLPZO [β18] | – | – | binding to TETAQUIN (screen of overlapping 22-mer TTx peptides): good binding; also recorded: antibodies present
11 | Q Y I K A N S K F I G I T E L K K L Z O (QYIKANSKFIGITELKKL-{Ahx-code O}; reading uncertain) [P6] | 0.75 | 0.75 | –
12 | Q Y I K A N S K Z O (QYIKANSK-{Ahx-code O}; reading uncertain) [P36] | 0.2 | 0.2 | –
13 | S K F I G I T E L K K L Z O (SKFIGITELKKL-{Ahx-code O}; reading uncertain) [P18] | 0.45 | 0.45 | –
14 | F I G I T E L K K L E S J I Z O (FIGITELKKLESK(For)I[Ahx]K; not fully specified (residue 16)) [0925-66, J = Lys(formyl)] | – | – | OD [2]: 2.10
15 | F I G I T E L K K L E S K I N Z Z O (FIGITELKKLESKIN[Ahx][Ahx]K(Biotin)) | – | – | ELISA OD, effect of longer spacer and C- versus N-terminal biotinylation [1]: 0.64
16 | S K F I G I T E Z O (SKFIGITE-{Ahx-code O}; reading uncertain) [P33] | 0.2 | 0.2 | –
17 | I K A N S K F I G I T E L K K L Z O (IKANSKFIGITELKKL-{Ahx-code O}; reading uncertain) [P9] | 0.6 | 0.6 | –
18 | A N S K F I G I T E L K Z O (ANSKFIGITELK-{Ahx-code O}; reading uncertain) [P19] | 0.2 | 0.2 | –
19 | Q Y I K A N S K F I G I T E Z O (QYIKANSKFIGITE-{Ahx-code O}; reading uncertain) [P15] | 0.25 | 0.25 | –
20 | G I T E L K K L E S K I Z O (GITELKKLESKI-{Ahx-code O}; reading uncertain) [P16] | 0.45 | 0.45 | –
21 | I K A N S K F I G I T E L K Z O (IKANSKFIGITELK-{Ahx-code O}; reading uncertain) [P14] | 0.2 | 0.2 | –
22 | T E L K K L E S K I N K V F Z O (TELKKLESKINKVF[Ahx]K(Biotin)) [0925-61] | – | – | OD [2]: 0.35
23 | Q Y I K A N S K F I G I Z O (QYIKANSKFIGI-{Ahx-code O}; reading uncertain) [P21] | 0.2 | 0.2 | –
24 | J Z SKFIGITELKKLESKINKVF | – | – | ELISA OD, effect of longer spacer and C- versus N-terminal biotinylation [1]: 0.28

Row | Substance | OD [3] | OD [4] | other results
25 | F I G I T E L K J L E S K I Z O [0925-65, J = Lys(formyl)] | – | – | OD [2]: 1.50
26 | J Z F I G I T E L K K L E S K I N K V F | – | – | ELISA OD, effect of longer spacer and C- versus N-terminal biotinylation [1]: 0.17
27 | KALNPKEIEKLYTSYLSITFLRZO [β54] | – | – | binding to TETAQUIN (screen of overlapping 22-mer TTx peptides): good binding; also recorded: antibodies present
28 | F I G I T E L K J L E S J I Z O [0925-69, J = Lys(formyl)] | – | – | OD [2]: 1.65
29 | SLTDLGGELCIKIKNEDLTFIAZO [β1] | – | – | ELISA OD, effect of longer spacer and C- versus N-terminal biotinylation: 0.12
30 | F I G I T E L K K L E S K I N Z O (FIGITELKKLESKIN[Ahx]K(Biotin)) [0925-57] | – | – | OD [2]: 1.65
31 | F I G I T E L K Z O (FIGITELK-{Ahx-code O}; reading uncertain) [P32] | 0.2 | 0.2 | –
32 | J Z Z F I G I T E L K K L E S K I N K V F | – | – | ELISA OD, effect of longer spacer and C- versus N-terminal biotinylation [1]: 0.22
33 | A N S K F I G I T E Z O (ANSKFIGITE-{Ahx-code O}; reading uncertain) [P26] | 0.2 | 0.2 | –
34 | FIGITELKKLESKINKVFST Z O [0925-52] | – | – | OD [2]: 1.85
35 | F I G I T E L K K L E S Z O (FIGITELKKLES-{Ahx-code O}; reading uncertain) [P17] | 0.45 | 0.45 | –
36 | F I G I T E L J J L E S J I Z O [0925-70, J = Lys(formyl)] | – | – | OD [2]: 1.00
37 | S K F I G I T E L K Z O (SKFIGITELK-{Ahx-code O}; reading uncertain) [P25] | 0.2 | 0.2 | –
38 | TSYLSITFLRDFWGNPLRYDTEZO [β55] | – | – | binding to TETAQUIN (screen of overlapping 22-mer TTx peptides): good binding; also recorded: antibodies present
39 | T E L K K L E S Z O (TELKKLES-{Ahx-code O}; reading uncertain) [P30] | 0.2 | 0.2 | –
40 | E L K K L E S K I N K V F S Z O [0925-62] | – | – | OD [2]: 0.35
41 | A N S K F I G I Z O (ANSKFIGI-{Ahx-code O}; reading uncertain) [P34] | 0.2 | 0.2 | –
42 | G I T E L K K L Z O (GITELKKL-{Ahx-code O}; reading uncertain) [P31] | 0.2 | 0.2 | –
43 | F I G I T E L J J L E S K I Z O [0925-67, J = Lys(formyl)] | – | – | OD [2]: 1.15
44 | F I G I T E L K K L E S K I N K V F S Z O [0925-53] | – | – | OD [2]: 1.90
45 | F I G I T E L K K L E S K I N K V F Z Z O (FIGITELKKLESKINKVF[Ahx][Ahx]K; not fully specified (residue 21); also: O: biotin modification, exact residue form not clear) | – | – | ELISA OD, effect of longer spacer and C- versus N-terminal biotinylation [1]: 1.16
46 | IKANSKFIGITELKKLESKI Z O (IKANSKFIGITELKKLESKI-{Ahx-code O}; reading uncertain) [P2] | 1.2 | 1.2 | –
47 | F I G I T E L K K L E S K I Z Z O (FIGITELKKLESKI[Ahx][Ahx]K(Biotin)) | – | – | ELISA OD, effect of longer spacer and C- versus N-terminal biotinylation [1]: 0.79
